{"source": "patent US6500856B2", "about": "“Cyclic AMP-specific phosphodiesterase inhibitors” (Icos Corporation, priority 1999, dated 2002)", "key": {"[1]": {"tested_on": "human peripheral blood lymphocytes (PBL)", "experiment": "Lipopolysaccharide-stimulated TNFα release from human peripheral blood lymphocytes", "type": "cell-based", "conditions": "LPS-stimulated TNFα release from human PBL", "procedure": "The compounds of structural formula (II) also were tested for an ability to reduce TNFα secretion in human peripheral blood lymphocytes. The ability to reduce TNFα secretion is related to the EC50 values (i.e., the effective concentration of the compound capable of inhibiting 50% of the total TNFα).\nTo assess the ability of a compound to reduce TNFα secretion in human peripheral blood lymphocytes (PBL), the following tests were performed.\nHeparinized blood (approximately 30 mL) drawn from human volunteers was mixed 1:1 with Dulbecco's modified phosphate-buffered saline. This mixture was mixed 1:1 with HISTOPAQUE® and centrifuged at 1,500 rpm at room temperature without braking in the swinging bucket of a Beckman model TJ6 centrifuge. Erythrocytes were centrifuged to the bottom of the tubes, and serum remained at the surface of the tubes. A layer containing lymphocytes sedimented between the serum and HISTOPAQUE® layers, and was removed by aspiration to a fresh tube. The cells were quantified and adjusted to 3×10^6 cells/mL and a 100 μL aliquot is placed into the wells of a 96 well plate. Test compounds and RPMI media (Gibco/BRL Life Sciences) are added to each of the wells 15 minutes prior to addition of bacterial LPS ([…]). The mixture was allowed to incubate for 20 hours at 37° C. in a humidified chamber. The cells then were separated by centrifuging at 800 rpm for 5 minutes at room temperature. An aliquot of 180 μL of supernatant was transferred to a new plate for determination of TNFα concentration. TNFα protein in the cell supernatant fluids was measured using a commercially available enzyme-linked immunosorbent assay (ELISA) (CYTOSCREEN® Immunoassay Kit from Biosource International).\nThe cell-based assay provided the following results for various pyrrolidine compounds of the present invention. The EC50 values (i.e., effective concentration of the compound capable of inhibiting 50% of the total TNFα) illustrate the ability of the present compounds to inhibit LPS-stimulated TNFα release from human PBL."}, "[2]": {"tested_on": "T1, recombinant human PDE4", "T1 construct": "PDE4 IC50; other: human recombinant PDE4", "experiment": "PDE4 inhibition, recombinant human PDE4 (charcoal separation PDE assay)", "type": "biochemical", "procedure": "The compounds of structural formula (II) were tested for an ability to inhibit PDE4. The ability of a compound to inhibit PDE4 activity is related to the IC50 value for the compound, i.e., the concentration of inhibitor required for 50% inhibition of enzyme activity. The IC50 value for compounds of structural formula (II) were determined using recombinant human PDE4.\nPhosphodiesterase activity of the preparations was determined as follows. PDE assays utilizing a charcoal separation technique were performed essentially as described in Loughney et al. (1996). In this assay, PDE activity converts [32P]cAMP or [32P]cGMP to the corresponding [32P]5′-AMP or [32P]5′-GMP in proportion to the amount of PDE activity present. The [32P]5′-AMP or [32P]5′-GMP then was quantitatively converted to free [32P]phosphate and unlabeled adenosine or guanosine by the action of snake venom 5′-nucleotidase. […] The assay was performed at 30° C. in a 100 μL reaction mixture containing (final concentrations) 40 mM Tris HCl (pH 8.0), 1 μM ZnSO4, 5 mM MgCl2, and 0.1 mg/mL bovine serum albumin (BSA). Alternatively, in assays assessing PDEl-specific activity, incubation mixtures further incorporated the use of 0.1 mM CaCl2 and 10 μg/mL calmodulin. PDE enzyme was present in quantities that yield <30% total hydrolysis of substrate (linear assay conditions). The assay was initiated by addition of substrate ([…] [32P]cAMP or cGMP), and the mixture was incubated for 12 minutes. Seventy-five (75) μg of Crotalus atrox venom then was added, and the incubation was continued for 3 minutes (15 minutes total). The reaction was stopped by addition of 200 μL of activated charcoal (25 mg/mL suspension in 0.1 M NaH2PO4, pH 4). After centrifugation (750×g for 3 minutes) to sediment the charcoal, a sample of the supernatant was taken for radioactivity determination in a scintillation counter and the PDE activity was calculated.\nThe table below illustrates the ability of compounds of formula (II) to inhibit PDE4 activity and TNFα release in vitro. In the following table, the IC50 values were determined against human recombinant PDE4."}, "[3]": {"tested_on": "female Balb/c mice", "experiment": "Combined mouse endotoxin-stimulated TNFα release and locomotor activity assay (spontaneous mobility)", "type": "in vivo", "conditions": "i.p., 50 mg/kg dose, locomotor activity", "procedure": "(§1) The purpose of this study was to determine the efficacy of PDE4 inhibitors in vivo in an LPS mouse model together with a determination with respect to central nervous system (CNS) side-effects manifested by a decrease in spontaneous mobility.\n(§2) The test animals were female Balb/c mice, having an average weight of about 20 g. The PDE4 inhibitors, formulated in 30% Cremophor® EL, were administered via intraperitoneal (i.p.) injections at doses of 0.1, 1.0, 10.0, and 100 mg/kg. Individual dose volumes (about 150 μL) were adjusted based on the body weights measured. One hour later, 5 mg/kg LPS in a final volume of 200 μL was injected via the tail vein to each animal. Ninety minutes following the LPS treatment, the animals were bled and serum samples were collected before being stored at −70° C. until assayed.\n(§3) Movement of the X-Y plane, or rearina up on the hind legs, was quantified by counting the number of “light-beam” crosses per unit of time. A decrease in the number of activity events is directly proportional to the mobility or immobilization of the animal. The quantitative scoring correlated well with the subjective measurements described above.\n(§4) The following table summarizes the locomotor activity assay (mobility, % activity) results obtained by the above-described method:\n(§5) effective dose, in mg/kg, that decreases spontaneous mobility 50% of control."}, "[4]": {"experiment": "Combined mouse endotoxin-stimulated TNFα release and locomotor activity assay (spontaneous mobility)", "type": "in vivo", "conditions": "female, Balb/c, in vivo, ip, locomotor activity, read-out: ED50 (effective dose that decreases spontaneous mobility 50% of control)", "procedure": "as §1, §2, §3, §4, §5"}, "[5]": {"conditions": "in vivo; cited from earlier work"}, "[6]": {"tested_on": "recombinant human PDE4", "conditions": "prior art value; read-out: IC50 with respect to inhibiting recombinant human PDE4 (reported); cited from earlier work"}}, "note": "Read-outs that look alike come from different tables or passages of the source."}
{"compound": "COC(=O)N1CC(c2ccc(OC)c(OC3Cc4ccccc4C3)c2)[C@](C)(/C(C)=N\\O)C1", "note": "(mixture of isomers) [Example 3]", "values": [{"measurement": "EC50", "setting": "[1]; Homo sapiens, Lymphocyte", "result": 551, "unit": "nM"}, {"measurement": "IC50", "setting": "[2]", "result": 189, "unit": "nM"}]}
{"compound": "CN/N=C(\\C)C1(C)CN(C(=O)OC)CC1c1ccc(OC)c(OC2CCCC2)c1", "note": "(single isomer, unassigned) [Example 1a]", "values": [{"measurement": "EC50", "setting": "[1]", "result": 76, "unit": "nM"}, {"measurement": "Mobility (% activity at 50 mg/kg dose)", "setting": "[3]", "result": 64, "unit": "% activity"}, {"measurement": "IC50", "setting": "[2]", "result": 116, "unit": "nM"}]}
{"compound": "CN/N=C(\\C)C1(C)CN(C(=O)OC)CC1c1ccc(OC)c(OC2CCCC2)c1", "note": "(single isomer, unassigned) [Example 1b]", "values": [{"measurement": "EC50", "setting": "[1]", "result": 2.2, "unit": "nM"}, {"measurement": "Mobility (% activity at 50 mg/kg dose)", "setting": "[3]", "result": 6, "unit": "% activity"}, {"measurement": "IC50", "setting": "[2]", "result": 2.2, "unit": "nM"}]}
{"compound": "COC(=O)N1CC(c2ccc(OC)c(OC3CCCC3)c2)[C@](C)(/C(C)=N\\O)C1", "note": "(some centres unmarked) [Example 2a]", "values": [{"measurement": "EC50", "setting": "[1]; Homo sapiens, Lymphocyte", "result": 281, "unit": "nM"}, {"measurement": "ED50", "setting": "[4]", "result": "> 50", "unit": "mg/kg"}, {"measurement": "IC50", "setting": "[2]", "result": 49, "unit": "nM"}]}
{"compound": "COC(=O)N1CC(c2ccc(OC)c(OC3CCCC3)c2)[C@@](C)(/C(C)=N\\O)C1", "note": "(some centres unmarked) [Example 2b]", "values": [{"measurement": "EC50", "setting": "[1]; Homo sapiens, Lymphocyte", "result": 23, "unit": "nM"}, {"measurement": "ED50", "setting": "[4]", "result": 7, "unit": "mg/kg"}, {"measurement": "IC50", "setting": "[2]", "result": 2.2, "unit": "nM"}]}
{"compound": "COc1ccc([C@@H]2CNC(=O)C2)cc1OC1CCCC1", "note": "[R-rolipram]", "values": [{"measurement": "Emetic potency relative to the (+)-enantiomer", "setting": "[5]", "result": "about ten-fold more emetic"}]}
{"compound": "COc1ccc(C2CNC(=O)C2)cc1OC1CCCC1", "note": "(centres unmarked) [Rolipram]", "values": [{"measurement": "IC50", "setting": "[6]", "result": "~200", "unit": "nM"}]}
{"compound": "COC(=O)N1CC(c2ccc(OC)c(OC3CCCC3)c2)C(C)(C(C)=O)C1", "note": "(centres unmarked) [formula (I)]", "values": [{"measurement": "IC50", "setting": "[6]", "result": "~2", "unit": "nM"}]}
